The record followed here is patent publication US10189843B2, “Fused pyrazole derivative having autotaxin inhibitory activity” (The University of Tokyo, priority 2014, dated 2019).

Some results are limits rather than exact numbers.

For this test, the target named is T1, Human autotaxin enzyme (Homo sapiens, UniProt Q13822).
T1 construct: purchased R&D System
Description: Evaluation of autotaxin inhibitor, Method C (18:0 Lyso PC substrate, choline assay, Resorufin fluorescence). It counts as biochemical. Conditions: Method C (Test Example 3), read-out: Inhibitory activity (enzyme inhibitory activity, IC50). In outline: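 Recombinant human autotaxin with compound and 200 μM 18:0 Lyso PC (stock) in Tris-HCl pH 7.5, NaCl, MgCl2, Triton X-100, 2 h RT. Released choline detected via choline oxidase/peroxidase/Amplex-type reagent, 20 min, resorufin fluorescence 531/598 nm; % inhibition vs no-compound and no-enzyme controls, concentration-response curve.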
The term IC50 denotes the concentration that inhibits the measured activity by half. In the case of `CCCC(=O)Nc1cc(Cl)ccc1-c1cc2n(n1)[C@@H](C)CN(Cc1ccc(C#N)cc1)C2=O` [Compound I-0321], the IC50 was in the range of 10 to 100 nM. As for `C[C@H]1CN(Cc2ccc(C#N)cc2)C(=O)c2cc(-c3ccc(Cl)cc3NC(=O)C3CC3)nn21` [Compound I-0322], the IC50 lay in the range of 10 to 100 nM. Turning to `C[C@H]1CN(Cc2ccc(C#N)cc2)C(=O)c2cc(-c3ccc(Cl)cc3NS(C)(=O)=O)nn21` [Compound I-0323], the IC50 lay in the range of 100 to 1000 nM. For the molecule `C[C@H]1CN(Cc2ccc(C#N)cc2)C(=O)c2cc(-c3ccc(Cl)cc3Nc3nccs3)nn21` [Compound I-0324], the IC50 is ≥ 1000 nM. With `CC(C#N)Nc1cc(Cl)ccc1-c1cc2n(n1)[C@@H](C)CN(Cc1ccc(C#N)cc1)C2=O` (stereo partly shown) [Compound I-0325], the IC50 was ≥ 1000 nM.

`C[C@H]1CN(Cc2ccc(C#N)cc2)C(=O)c2cc(-c3ccc(Cl)cc3Br)nn21` [Compound I-0326]: the IC50 is ≥ 1000 nM.

Take `C[C@H]1CN(Cc2ccc(C#N)cc2)C(=O)c2cc(-c3ccc(Cl)cc3F)nn21` [Compound I-0327]: the IC50 was ≥ 1000 nM.

For the molecule `CCNc1cc(Cl)ccc1-c1cc2n(n1)[C@@H](C)CN(Cc1ccc(C#N)cc1)C2=O` [Compound I-0328], the IC50 fell in the range of 100 to 1000 nM. Turning to `COCc1cc(Cl)ccc1-c1cc2n(n1)[C@@H](C)CN(Cc1ccc(C#N)cc1)C2=O` [Compound I-0329], the IC50 was ≥ 1000 nM. For the molecule `CC(=O)Nc1cc(Cl)c(F)cc1-c1cc2n(n1)[C@@H](C)CN(Cc1ccc(C#N)cc1)C2=O` [Compound I-0330], the IC50 is < 10 nM. With `CCCCC1CN(CC(=O)NC(C#N)Cc2ccccc2)C(=O)c2cc(-c3ccc(Cl)cc3)nn21` (stereo not shown) [Compound I-0331], the IC50 was 100 to 1000 nM.

As for `C[C@H]1CN(Cc2ccc(C#N)cc2)C(=O)c2cc(-c3ccc(Cl)cc3NC(=O)CN(C)C)nn21` [Compound I-0332], the IC50 is 10 to 100 nM. As to `CC(=O)Nc1cc(C(F)(F)F)ccc1-c1cc2n(n1)[C@@H](C)CN(Cc1ccc(C#N)cc1)C2=O` [Compound I-0333], the IC50 was in the range of 10 to 100 nM.

For the molecule `CC(=O)Nc1cc(OC(F)(F)F)ccc1-c1cc2n(n1)[C@@H](C)CN(Cc1ccc(C#N)cc1)C2=O` [Compound I-0334], the IC50 is < 10 nM. Consider `CC(=O)Nc1cc(C#N)ccc1-c1cc2n(n1)[C@@H](C)CN(Cc1ccc(C#N)cc1)C2=O` [Compound I-0335], for which the IC50 is < 10 nM.

For `CNC(=O)Cc1cc(Cl)ccc1-c1cc2n(n1)[C@@H](C)CN(Cc1ccc(C#N)cc1)C2=O` [Compound I-0336], the IC50 is ≥ 1000 nM. Consider `CC(=O)Nc1cc(Cl)cnc1-c1cc2n(n1)[C@@H](C)CN(Cc1ccc(C#N)cc1)C2=O` [Compound I-0337], for which the IC50 lay within 10 to 100 nM. `CC(=O)Nc1cc(C#N)ccc1-c1cc2n(n1)[C@@H](C)CN(C[C@H]1CNC(=O)O1)C2=O` [Compound I-0338]: the IC50 lay within 10 to 100 nM. In the case of `CC(=O)Nc1cc(OC(F)(F)F)ccc1-c1cc2n(n1)[C@@H](C)CN(C[C@H]1CNC(=O)O1)C2=O` [Compound I-0339], the IC50 is < 10 nM. For the molecule `CC(=O)NC[C@@H](O)CN1C[C@H](C)n2nc(-c3ccc(OC(F)(F)F)cc3NC(C)=O)cc2C1=O` [Compound I-0340], the IC50 lay within 10 to 100 nM. Consider `CC(=O)Nc1cc(C#N)ccc1-c1cc2n(n1)[C@@H](C)CN(CC(=O)N(C)CCC#N)C2=O` [Compound I-0341], for which the IC50 fell in the range of 10 to 100 nM.

Take `CNC(=O)Nc1cc(Cl)ccc1-c1cc2n(n1)[C@@H](C)CN(Cc1ccc(C#N)cc1)C2=O` [Compound I-0342]: the IC50 was in the range of 100 to 1000 nM. As to `CC(=O)Nc1cc(Cl)ccc1-c1cc2n(n1)[C@@H](C(F)(F)F)CN(Cc1ccc(C#N)cc1)C2=O` [Compound I-0343], the IC50 was 10 to 100 nM. For the molecule `CC(=O)Nc1cc(C#N)ccc1-c1cc2n(n1)[C@@H](C)CN(Cc1cccc(C(=O)O)c1)C2=O` [Compound I-0344], the IC50 was < 10 nM. With `CC(=O)Nc1cc(OC(F)(F)F)ccc1-c1cc2n(n1)[C@@H](C)CN(Cc1cccc(C(=O)O)c1)C2=O` [Compound I-0345], the IC50 is < 10 nM. In the case of `C[C@H]1CN(Cc2ccc(C#N)cc2)C(=O)c2cc(-c3c(N)cc(Cl)cc3CO)nn21` [Compound I-0346], the IC50 lay in the range of 100 to 1000 nM. Turning to `CC(=O)Nc1cc(Cl)cc(CO)c1-c1cc2n(n1)[C@@H](C)CN(Cc1ccc(C#N)cc1)C2=O` [Compound I-0347], the IC50 was in the range of 10 to 100 nM. `CC(=O)Nc1cc(C#N)cc(CO)c1-c1cc2n(n1)[C@@H](C)CN(Cc1ccc(C#N)cc1)C2=O` [Compound I-0348]: the IC50 was in the range of 10 to 100 nM. Under `CC(C)Nc1cc(Cl)ccc1-c1cc2n(n1)[C@@H](C)CN(Cc1ccc(C#N)cc1)C2=O` [Compound I-0349] stands 100 to 1000 nM. `C[C@H]1CN(CC(=O)N(C)CCC#N)C(=O)c2cc(-c3ccc(C#N)cc3NC(=O)C3CC3)nn21` [Compound I-0350]: the IC50 is < 10 nM. As for `COCC(=O)Nc1cc(C#N)ccc1-c1cc2n(n1)[C@@H](C)CN(CC(=O)N(C)CCC#N)C2=O` [Compound I-0351], the IC50 was < 10 nM. On to `C[C@H]1CN(CC(=O)N(C)CCC#N)C(=O)c2cc(-c3ccc(C#N)cc3NC(=O)CC(F)(F)F)nn21` [Compound I-0352], for which the IC50 was 10 to 100 nM. As to `C[C@H]1CN(CC(=O)N(C)CCC#N)C(=O)c2cc(-c3ccc(C#N)cc3NC(=O)CF)nn21` [Compound I-0353], the half-inhibitory concentration (IC50) was < 10 nM. For the molecule `C[C@H]1CN(CC(=O)N(C)CCC#N)C(=O)c2cc(-c3ccc(C#N)cc3NC(=O)C(F)(F)F)nn21` [Compound I-0354], the IC50 is < 10 nM.

As for `N#Cc1ccc(CN2CC3CCCCCC(=O)Nc4cc(Cl)ccc4-c4cc(n3n4)C2=O)cc1` (stereo not shown) [Compound I-0355], the concentration for half-maximal inhibition (IC50) was < 10 nM. For `CCNc1cc(Cl)cc(CO)c1-c1cc2n(n1)[C@@H](C)CN(Cc1ccc(C#N)cc1)C2=O` [Compound I-0356], the IC50 was < 10 nM. As to `N#Cc1ccc(CN2CC3CC/C=C/CC(=O)Nc4cc(Cl)ccc4-c4cc(n3n4)C2=O)cc1` (stereo not shown) [Compound I-0357], the IC50 was < 10 nM. For `N#Cc1ccc(CN2CC3CC/C=C\CC(=O)Nc4cc(Cl)ccc4-c4cc(n3n4)C2=O)cc1` (stereo not shown) [Compound I-0358] the value was 10 to 100 nM. With `C[C@H]1CN(CC(=O)N(C)CCC#N)C(=O)c2cc(-c3ccc(C#N)cc3NC(=O)C(C)(C)C)nn21` [Compound I-0359], the IC50 is 10 to 100 nM. Consider `C[C@H]1CN(CC(=O)N(C)CCC#N)C(=O)c2cc(-c3ccc(C#N)cc3NC(=O)CO)nn21` [Compound I-0360], for which the IC50 is 100 to 1000 nM.

`C[C@H]1CN(Cc2ccc(C#N)cc2)C(=O)c2cc(-c3c(Br)cc(Cl)cc3CO)nn21` [Compound I-0361]: the IC50 was in the range of 100 to 1000 nM. For `CC(=O)Nc1cc(C#N)ccc1-c1cc2n(n1)[C@@H](C)CN(CC1CCCO1)C2=O` (stereo partly shown) [Compound I-0362] the value was 10 to 100 nM; for `COC(=O)Nc1cc(Cl)ccc1-c1cc2n(n1)[C@@H](C)CN(CC(=O)N(C)CC#N)C2=O` [Compound I-0363], 10 to 100 nM. Take `C[C@H]1CN(CC(=O)N(C)CC#N)C(=O)c2cc(-c3ccc(C#N)cc3NC(=O)C3CC3)nn21` [Compound I-0364]: the IC50 was 10 to 100 nM. For `C[C@H]1CN(CC(=O)N(C)CC#N)C(=O)c2cc(-c3ccc(Cl)cc3NC(=O)C3CC3)nn21` [Compound I-0365], the IC50 is 10 to 100 nM. On to `CC(=O)NC1=C(c2cc3n(n2)[C@@H](C)CN(Cc2ccc(C#N)cc2)C3=O)CCC(C(F)(F)F)C1` (stereo partly shown) [Compound I-0366], for which the IC50 was in the range of 10 to 100 nM. `CC(=O)Nc1cc(C#N)ccc1-c1cc2n(n1)[C@@H](C)CN(C1CCN(CC(F)(F)F)C1=O)C2=O` (stereo partly shown) [Compound I-0367]: the IC50 fell in the range of 10 to 100 nM. Regarding `CC(=O)NC1=C(c2cc3n(n2)[C@@H](C)CN(Cc2ccc(C#N)cc2)C3=O)C(=O)CC(C(F)(F)F)C1` (stereo partly shown) [Compound I-0368], the IC50 lay in the range of 10 to 100 nM.

In the case of `CC(=O)NC1=C(c2cc3n(n2)[C@@H](C)CN(Cc2ccc(C#N)cc2)C3=O)C(O)CC(C(F)(F)F)C1` (stereo partly shown) [Compound I-0369], the IC50 is 100 to 1000 nM. Take `CC(=O)Nc1cc(C#N)ccc1-c1cc2n(n1)C(CC(F)(F)F)CN(Cc1ccc(C#N)cc1)C2=O` (stereo not shown) [Compound I-0370]: the half-inhibitory concentration (IC50) was 10 to 100 nM. As for `N#Cc1ccc(CN2CC(CC(F)(F)F)n3nc(-c4c(C#N)cc(Cl)cc4CO)cc3C2=O)cc1` (stereo not shown) [Compound I-0371], the IC50 lay in the range of 100 to 1000 nM. As for `CCCCC1CN(Cc2ccc(C#N)cc2)C(=O)c2cc(-c3ccc(S(F)(F)(F)(F)F)cc3)nn21` (stereo not shown) [Compound I-0372], the IC50 lay in the range of 100 to 1000 nM.
